Experimental data: patent publication US11440923B2, “Substituted macrocyclic indole derivatives” (Bayer Aktiengesellschaft, priority 2017, dated 2022)
Where a name gives a salt, the structure may show the parent alone. Read-outs that look alike come from different tables or passages of the source.

Tests used:
[1] = from CCOC(=O)c1[nH]c2c(-c3c(C(CCN4CCOCC4)OCC(F)(F)CCO)nn(C)c3CC)c(Cl)ccc2c1CCCOc1cccc2cc(F)ccc12; amine bond; 11-membered ring; PPh3/DTBAD; THF; 22.5 mM
SUDHL5 cells [2] = experiment: Induction of cytotoxicity in SUDHL5 cells (Assay 6); assay type: cell-based; settings: 5 h, CellTiter-Glo, read-out: Cytotox SUDHL5 IC50 (median)
In short: (§1)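 Following overnight seeding at 37 °C, cells are treated with compound for 5 h, after which CellTiter-Glo reagent is added and luminescence measured following a 15 min room-temperature shake.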

SUDHL10 cells [3] = experiment: Induction of caspase-3/7 activity in SUDHL10 cells (Assay 4); assay type: cell-based
In short: (§2)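 Read-out: Caspase-Glo 3/7 luminescence (1 h, 37 °C) after cells, plated overnight, were treated with compounds for 3 h at 37 °C. Signal corrected for cell-free medium background and expressed relative to DMSO control mean.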

SNU-389 cells = experiment: Antiproliferation assay SNU-389 (Assay 7); assay type: cell-based; settings: 72 h, read-out: Antiproli SNU-389 IC50
Procedure: (§3) Assessment of the Anti-Proliferative Effect of Compounds in Different Cell Lines
(§4) The impact of compounds on the proliferation of different cell lines was assessed using the CellTiter-Glo® Luminescent Cell Viability reagent from Promega (G7573).
(§5) In parallel, cells were plated in a reference (day 0) plate for time zero determination. Cells were incubated in a humidified incubator at 37° C. overnight.
(§6) Rim wells were excluded. The cells were incubated for 72 h hours in a humidified incubator at 37° C. The day 0 plate was measured by adding 30 μL/well of CTG solution (CellTiter-Glo® Luminescent Cell Viability reagent, Promega G7573) to time zero wells in the reference plate followed by a 10 minutes incubation and luminescence reading at 0.1 ms. using the PHERAstar FS microplate reader (BMG Labtech).
(§7) After 72 h incubation, the treated plates were measured in the same way as the day 0 plate mentioned above. The Bella DRC Master Sheet was used to calculate IC50s, with CI=day 0 values and C0=DMSO control values.

AMO-1 cells = experiment: Antiproliferation assay AMO-1 (Assay 7); assay type: cell-based
In short: (§8)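 72 h antiproliferation, 37 °C, CellTiter-Glo luminescence. Day 0 plate = CI; DMSO = C0; IC50 calculated from these.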

PA-1 cells = experiment: Antiproliferation assay PA-1 (Assay 7); assay type: cell-based; settings: Homo sapiens, read-out: Antiproli PA-1 IC50 median
Procedure: as §3, §4, §5, §6, §7

HMC-1-8 cells = experiment: Antiproliferation assay HMC-1-8 (Assay 7); assay type: cell-based
In short: as §8

DMS-114 cells = experiment: Antiproliferation assay DMS-114 (Assay 7); assay type: cell-based; settings: Homo sapiens, read-out: Antiproli DM-S114 IC50 median
Procedure: as §3, §4, §5, §6, §7

SNU-16 cells = experiment: Antiproliferation assay SNU-16 (Assay 7); assay type: cell-based; settings: Homo sapiens, read-out: Antiproli SNU-16 IC50 median
Procedure: as §3, §4, §5, §6, §7

SUDHL10 cells [4] = experiment: Induction of cytotoxicity in SUDHL10 cells (Assay 6); assay type: cell-based; settings: 5 h, CellTiter-Glo, read-out: Cytotox SUDHL10 IC50 (median)
In short: as §1

SUDHL5 cells [5] = experiment: Induction of caspase-3/7 activity in SUDHL5 cells (Assay 4); assay type: cell-based
In short: as §2

SK-MEL-2 cells = experiment: Antiproliferation assay SK-MEL-2 (Assay 7); assay type: cell-based; settings: Homo sapiens, read-out: Antiproli SK-MEL-2 IC50 median
Procedure: as §3, §4, §5, §6, §7

SUDHL5 cells [6] = experiment: Antiproliferation assay SUDHL5 (Assay 7); assay type: cell-based
In short: as §8

A-431 cells = experiment: Antiproliferation assay A-431 (Assay 7); assay type: cell-based; settings: Homo sapiens, read-out: Antiproli A-431 IC50 median
Procedure: as §3, §4, §5, §6, §7

MCL-1 = MCL-1 (Homo sapiens (Human), UniProt Q07820, K194A/K197A/R201A); experiment: Protein-protein interaction assay MCL-1/Noxa BH3 peptide (MCL-1 assay, TR-FRET); assay type: binding; settings: MCL-1 Assay IC50 (median)
Procedure: The dose-dependent inhibition by the compounds described in this invention of the interaction between MCL-1 and the BH3 domain of Noxa (both human) was determined using a steady state binding competition assay with time-resolved fluorescence energy transfer (TR-FRET) readout. For that purpose MCL-1 (amino acids 173-321, N-terminal fused to Maltose Binding Protein (MBP) SEQ ID 1)) and a synthetic Noxa BH3-derived peptide of sequence Biotin-PEG2-PEG2-PAELEVE-Nva-[…]-amide (SEQ ID 2) served as protein receptor and tracer ligand respectively. The MBP-MCL-1 was purchased from Beryllium (Bedford, Mass., USA). The expression and purification of this protein construct has been described elsewhere (DOI:10.1371/journal.pone.0125010). The Noxa BH3-derived peptide can be obtained from e.g. Biosyntan (Berlin, Germany).
For that, 100-fold concentrated DMSO solutions were prepared by serial dilutions (1:3.4) of a 2 mM stock solution in a clear, 384-well microtiter plate (Greiner Bio-One, Frickenhausen, Germany). From there, 50 nl were transferred in a dark test plate (Greiner Bio-One, Frickenhausen, Germany). The assay was initiated by addition of 2 μL of a 2,5-fold concentrated MBP-MCL-1 solution (usually for a 1 nM end concentration in 5 μL reaction volume) in aqueous assay buffer [50 mM Tris/HCl pH 7, 100 mM sodium chloride (NaCl), 50 mM potassium fluoride (KF), 0.005% Tween-20, 2 mM DTT, 0.1% bovine gamma globulin (BGG)] to the compounds in the assay plate. This was followed by a 10-minute incubation step at 22° C. for pre-equilibration of the putative complex between MBP-MCL-1 and the compounds.
The mixture was incubated in the dark for one hour at 22° C. and then overnight at 4° C. The formation of MCL-1/Noxa complexes was determined by measuring the resonance energy transfer of the anti-MBP-Eu-cryptate antibody to the streptavidin-XL665 present in the reaction.
For that purpose, the fluorescence emission at 620 nm and 665 nm after excitation at 330-350 nm was measured in a TR-FRET measuring instrument, for instance a Rubystar or a Pherastar (both from BMG Lab Technologies, Offenburg, Germany) or a Viewlux (Perkin-Elmer). The ratio of the emission at 665 nm and at 622 nm was used as indicator of the amount of MCL-1/NOXA complexes present.
The resulting data (ratio) were normalized, taking 0% inhibition as the mean value of control measurements (usually 32 data points) where all reagents were included. In this case 50 nl DMSO were used instead of compounds. […] IC50 values were determined by regression analysis based on a 4 parameter equation (minimum, maximum, IC50, Hill; Y=Max+(Min−Max)/(1+(X/IC50)^Hill) using the Screener Software (Genedata).

MV-4-11 cells = experiment: Antiproliferation assay MV-4-11 (Assay 7); assay type: cell-based; settings: 72 h, CellTiter-Glo; read-out: Antiproli MV-4-11 IC50 median
Procedure: as §3, §4, §5, §6, §7

A2780 cells = experiment: Antiproliferation assay A2780 (Assay 7); assay type: cell-based; settings: 72 h, CellTiter-Glo; read-out: Antiproli A2780 IC50 median
Procedure: as §3, §4, §5, §6, §7

[7] = DMS-114 cells, 72 h, CellTiter-Glo
[8] = 72 h, CellTiter-Glo; read-out: Antiproli AMO-1 IC50 median
[9] = 72 h, CellTiter-Glo; read-out: Antiproli HMC-1-8 IC50 median

Chain of MCL-1 (Q07820 whole entry, looked up, stated change not applied, the tested form may be a part): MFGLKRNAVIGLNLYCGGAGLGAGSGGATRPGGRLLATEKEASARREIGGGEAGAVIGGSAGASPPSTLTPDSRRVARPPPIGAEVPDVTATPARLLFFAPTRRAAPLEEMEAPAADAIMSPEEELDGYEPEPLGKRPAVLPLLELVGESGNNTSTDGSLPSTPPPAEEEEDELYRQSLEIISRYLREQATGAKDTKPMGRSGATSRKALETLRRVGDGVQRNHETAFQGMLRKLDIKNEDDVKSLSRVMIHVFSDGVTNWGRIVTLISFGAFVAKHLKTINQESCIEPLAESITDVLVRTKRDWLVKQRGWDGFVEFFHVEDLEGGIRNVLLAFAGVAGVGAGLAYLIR

Compound	IC50 (SNU-389 cells; CellTiter-Glo)	IC50 (PA-1 cells; PA-1, 72 h, CellTiter-Glo)	IC50 (DMS-114 cells; [7])	IC50 (SNU-16 cells; SNU-16, 72 h, CellTiter-Glo)	IC50 (SK-MEL-2 cells; SK-MEL-2, 72 h, CellTiter-Glo)	IC50 (A-431 cells; A-431, 72 h, CellTiter-Glo)	IC50 (SUDHL5 cells [2])	IC50 (AMO-1 cells; [8])	IC50 (HMC-1-8 cells; [9])	IC50 (SUDHL10 cells [4])	IC50 (MV-4-11 cells)	IC50 (A2780 cells)	further results
CCOC(=O)c1c(CCCOc2cccc3cc(F)ccc23)c2ccc(Cl)c3c2n1CCC(F)(F)COC(CCN1CCOCC1)c1nn(C)c(CC)c1-3 (centres unmarked)	–	–	–	–	–	–	–	–	–	–	–	–	ring closure, isolated yield [1]: 83%
CCc1c2c(nn1C)C(CCN1CCC(F)(F)C1)OCCCCn1c(C(=O)O)c(CCCOc3cccc4cc(F)ccc34)c3ccc(Cl)c-2c31 (single isomer, unassigned; enantiomer 1) [Example 58, 4-chloro-15-[2-(3,3-difluoropyrrolidin-1-yl)ethyl]-3-ethyl-7-{3-[(6-fluoronaphthalen-1-yl)oxy]propyl}-2-methyl-2,10,11,12,13,15-hexahydropyrazolo[4′,3′:9,10][1,6]oxazacycloundecino[8,7,6-hi]indole-8-carboxylic Acid (Enantiomer 1)]	223 nM	110 nM	81.1 nM	135 nM	728 nM	486 nM	–	–	–	–	–	–	IC50 (SUDHL5 cells [2]; Homo sapiens, SU-DHL-5, 5 h): 28 nM; EC50 (SUDHL10 cells [3]; Homo sapiens, SU-DHL10, 3 h, caspase-3/7 induction, 3 h; read-out: Caspase SUDHL10 EC50 (median)): 23 nM; IC50 (AMO-1 cells; Homo sapiens, AMO1, 72 h, 72 h, CellTiter-Glo; read-out: Antiproli AMO-1 IC50 median): 19.4 nM; IC50 (HMC-1-8 cells; 72 h, CellTiter-Glo, read-out: Antiproli HMC-1-8 IC50 median): 328 nM; IC50 (SUDHL10 cells [4]; Homo sapiens, SU-DHL10, 5 h): 43 nM; EC50 (SUDHL5 cells [5]; Homo sapiens, SU-DHL-5, 3 h, caspase-3/7 induction, 3 h; read-out: Caspase SUDHL5 EC50 (median)): 26 nM; IC50 (SUDHL5 cells [6]; Homo sapiens, SU-DHL-5, 72 h, 72 h, CellTiter-Glo; read-out: Antiproli SUDHL5 IC50 (median)): 29 nM
CCc1c2c(nn1C)C(CCCN1CCOCC1)OCCCCn1c(C(=O)O)c(CCCOc3cccc4cc(F)ccc34)c3ccc(Cl)c-2c31 (single isomer, unassigned; enantiomer 1) [Example 66, (+)-4-chloro-3-ethyl-7-{3-[(6-fluoronaphthalen-1-yl)oxy]propyl}-2-methyl-15-[3-(morpholin-4-yl)propyl]-2,10,11,12,13,15-hexahydropyrazolo[4′,3′:9,10][1,6]oxazacycloundecino[8,7,6-hi]indole-8-carboxylic Acid (Enantiomer 1)]	307 nM	829 nM	766 nM	1110 nM	501 nM	414 nM	110 nM	28.5 nM	1160 nM	55 nM	–	–	EC50 (SUDHL10 cells [3]; caspase-3/7 induction, 3 h; read-out: Caspase SUDHL10 EC50 (median)): 39 nM; EC50 (SUDHL5 cells [5]; caspase-3/7 induction, 3 h; read-out: Caspase SUDHL5 EC50 (median)): 83 nM; IC50 (MCL-1): 0.54 nM; IC50 (SUDHL5 cells [6]; 72 h, CellTiter-Glo; read-out: Antiproli SUDHL5 IC50 (median)): 93 nM
CCc1c2c(nn1C)C(CCN1CCN(C)CC1)OCCCCn1c(C(=O)O)c(CCCOc3cccc4cc(F)ccc34)c3ccc(Cl)c-2c31 (single isomer, unassigned; stereoisomer 1) [Example 69, (+)-4-chloro-3-ethyl-7-{3-[(6-fluoronaphthalen-1-yl)oxy]propyl}-2-methyl-15-[2-(4-methylpiperazin-1-yl)ethyl]-2,10,11,12,13,15-hexahydropyrazolo[4′,3′:9,10][1,6]oxazacycloundecino[8,7,6-hi]indole-8-carboxylic Acid—N-ethylethanamine Salt (Stereoisomer 1)]	–	–	–	–	–	–	310 nM	–	–	300 nM	–	–	EC50 (SUDHL10 cells [3]; read-out: Caspase SUDHL10 EC50 (median); caspase-3/7 induction, 3 h): 150 nM; IC50 (SNU-389 cells): 2410 nM; IC50 (AMO-1 cells; read-out: Antiproli AMO-1 IC50 median; 72 h, CellTiter-Glo): 212 nM; IC50 (PA-1 cells; PA-1, 72 h): 795 nM; IC50 (HMC-1-8 cells; read-out: Antiproli HMC-1-8 IC50 median; 72 h, CellTiter-Glo): 4460 nM; IC50 (DMS-114 cells; DMS-114, 72 h): 762 nM; IC50 (SNU-16 cells; SNU-16, 72 h): 1490 nM; EC50 (SUDHL5 cells [5]; read-out: Caspase SUDHL5 EC50 (median); caspase-3/7 induction, 3 h): 250 nM; IC50 (SK-MEL-2 cells; SK-MEL-2, 72 h): 1810 nM; IC50 (SUDHL5 cells [6]; read-out: Antiproli SUDHL5 IC50 (median); 72 h, CellTiter-Glo): 240 nM; IC50 (A-431 cells; A-431, 72 h): 1660 nM
Cc1c2c(nn1C)C(CCN1CCOCC1)OCCCCn1c(C(=O)O)c(CCCOc3cccc4ccccc34)c3cccc-2c31 (centres unmarked) [Example 06]	–	–	–	–	–	–	–	–	–	–	22800 nM	> 33000 nM	–
Cc1c2c(nn1C)C(CCN1CCOCC1)OCCCCn1c(C(=O)O)c(CCCOc3cccc4ccccc34)c3ccc(F)c-2c31 (centres unmarked) [Example 07]	–	–	–	–	–	–	–	463 nM	1610 nM	–	183 nM	4080 nM	–
